# Source: ChEMBL document CHEMBL1201862, “PubChem BioAssay data set” (2004)
#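 Following 48 hours of exposure in 96-well plates, responses at five concentrations were used to interpolate endpoints linearly. GI50 = concentration required for 50% inhibition of growth.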 Activity calls are given as the source filed them. Rule as the data show it: active = GI50 up to about 1.1 µM and inactive = higher.
# How the values were obtained:
# Test in all cases: NCI tumour cell line growth inhibition, 48 h
# [1] = tested on: T47D
# [2] = tested on: OVCAR-5
# [3] = tested on: 786-0
# [4] = tested on: HOP-92
# [5] = tested on: SK-MEL-2
# [6] = tested on: HL-60
# [7] = tested on: U-251
# [8] = tested on: SNB-19
# [9] = tested on: MDA-N
# [10] = tested on: SF-539
# [11] = tested on: NCI-H226
# [12] = tested on: LOX IMVI
# [13] = tested on: SR
# [14] = tested on: OVCAR-4
# [15] = tested on: A549
# [16] = tested on: ACHN
# [17] = tested on: K562
# [18] = tested on: MOLT-4
# [19] = tested on: COLO 205
# [20] = tested on: RPMI-8226
# [21] = tested on: MDA-MB-435
# [22] = tested on: HCC 2998
# [23] = tested on: NCI-H460
# [24] = tested on: DU-145
# [25] = tested on: HCT-116
# [26] = tested on: BT-549
# [27] = tested on: CAKI-1
# [28] = tested on: CCRF-CEM
# [29] = tested on: HOP-62
# [30] = tested on: NCI-H23
# [31] = tested on: UACC-62
# [32] = tested on: A498
# [33] = tested on: Malme-3M
# [34] = tested on: NCI-H522
# [35] = tested on: SK-MEL-28
# [36] = tested on: RXF 393
# [37] = tested on: TK-10
# [38] = tested on: IGROV-1
# [39] = tested on: OVCAR-8
# [40] = tested on: MCF7
# [41] = tested on: UO-31
# [42] = tested on: PC-3
# [43] = tested on: HT-29
# [44] = tested on: SF-268
# [45] = tested on: Hs-578T
# [46] = tested on: SK-MEL-5
# [47] = tested on: HCT-15
# [48] = tested on: SN12C
# [49] = tested on: SNB-75
# [50] = tested on: MDA-MB-231
# [51] = tested on: UACC-257
# [52] = tested on: KM12
# [53] = tested on: OVCAR-3
# [54] = tested on: NCI/ADR-RES
# [55] = tested on: SF-295
# [56] = tested on: M14
# [57] = tested on: SW-620
# [58] = tested on: EKVX
# [59] = tested on: SK-OV-3
smiles,measurement,setting,value
CC(=O)OC1C[C@@H](C)C2(C[C@H](O)c3ccoc3)C(=O)OC[C@]13C2CCC(O)C31CO1 (stereo partly drawn),GI50,[1],1.51 µM (inactive)
same,GI50,[2],> 100 µM (inactive)
same,GI50,[3],> 100 µM (inactive)
same,GI50,[4],> 100 µM (inactive)
same,GI50,[5],> 100 µM (inactive)
same,GI50,[6],> 10 µM (inactive)
same,GI50,[7],> 100 µM (inactive)
same,GI50,[8],> 100 µM (inactive)
same,GI50,[9],> 100 µM (inactive)
same,GI50,[10],> 100 µM (inactive)
same,GI50,[11],> 100 µM (inactive)
same,GI50,[12],> 100 µM (inactive)
same,GI50,[13],> 100 µM (inactive)
same,GI50,[14],> 100 µM (inactive)
same,GI50,[15],> 100 µM (inactive)
same,GI50,[16],> 100 µM (inactive)
same,GI50,[17],> 100 µM (inactive)
same,GI50,[18],> 100 µM (inactive)
same,GI50,[19],> 100 µM (inactive)
same,GI50,[20],> 100 µM (inactive)
same,GI50,[21],> 100 µM (inactive)
same,GI50,[22],> 100 µM (inactive)
same,GI50,[23],> 100 µM (inactive)
same,GI50,[24],> 100 µM (inactive)
same,GI50,[25],> 100 µM (inactive)
same,GI50,[26],> 100 µM (inactive)
same,GI50,[27],> 100 µM (inactive)
same,GI50,[28],> 100 µM (inactive)
same,GI50,[29],> 100 µM (inactive)
same,GI50,[30],> 100 µM (inactive)
same,GI50,[31],> 100 µM (inactive)
same,GI50,[32],> 100 µM (inactive)
same,GI50,[33],> 100 µM (inactive)
same,GI50,[34],> 100 µM (inactive)
same,GI50,[35],> 100 µM (inactive)
same,GI50,[36],> 100 µM (inactive)
same,GI50,[37],> 100 µM (inactive)
same,GI50,[38],> 100 µM (inactive)
same,GI50,[39],> 100 µM (inactive)
same,GI50,[40],> 100 µM (inactive)
same,GI50,[41],> 100 µM (inactive)
same,GI50,[42],> 100 µM (inactive)
same,GI50,[43],> 100 µM (inactive)
same,GI50,[44],> 100 µM (inactive)
same,GI50,[45],> 100 µM (inactive)
same,GI50,[46],> 100 µM (inactive)
same,GI50,[47],> 100 µM
same,GI50,[48],> 100 µM (inactive)
same,GI50,[49],> 100 µM (inactive)
same,GI50,[50],> 100 µM (inactive)
same,GI50,[51],> 100 µM (inactive)
same,GI50,[52],> 100 µM (inactive)
same,GI50,[53],> 100 µM (inactive)
same,GI50,[54],> 100 µM (inactive)
same,GI50,[55],> 100 µM (inactive)
same,GI50,[56],> 100 µM (inactive)
COC(=O)C1=C(O)C(C(=O)OC)[C@]2(O)[C@H](C(=O)OC)[C@H]1C[C@@H](c1ccc(O)cc1)[C@H]2C(=O)OC (stereo partly drawn),GI50,[1],23.9 µM (inactive)
same,GI50,[2],23.8 µM (inactive)
same,GI50,[3],39 µM (inactive)
same,GI50,[4],79.8 µM (inactive)
same,GI50,[6],27.2 µM (inactive)
same,GI50,[7],18.3 µM (inactive)
same,GI50,[8],30.2 µM (inactive)
same,GI50,[9],20.1 µM (inactive)
same,GI50,[10],30.3 µM (inactive)
same,GI50,[11],44.4 µM (inactive)
same,GI50,[12],29.2 µM (inactive)
same,GI50,[13],23.2 µM (inactive)
same,GI50,[14],36.4 µM (inactive)
same,GI50,[15],32.5 µM (inactive)
same,GI50,[16],36.4 µM (inactive)
same,GI50,[17],22.8 µM (inactive)
same,GI50,[18],30.3 µM (inactive)
same,GI50,[19],31.2 µM (inactive)
same,GI50,[20],27.9 µM (inactive)
same,GI50,[21],18.7 µM (inactive)
same,GI50,[22],19.9 µM (inactive)
same,GI50,[23],23.7 µM (inactive)
same,GI50,[24],23.1 µM (inactive)
same,GI50,[25],27.7 µM (inactive)
same,GI50,[26],26.2 µM (inactive)
same,GI50,[27],21.2 µM (inactive)
same,GI50,[28],54 µM (inactive)
same,GI50,[29],18 µM (inactive)
same,GI50,[30],28.1 µM (inactive)
same,GI50,[57],50.7 µM (inactive)
same,GI50,[31],31.3 µM (inactive)
same,GI50,[32],33.3 µM (inactive)
same,GI50,[33],32.7 µM (inactive)
same,GI50,[35],41.8 µM (inactive)
same,GI50,[36],15.8 µM (inactive)
same,GI50,[37],25 µM (inactive)
same,GI50,[38],41.2 µM (inactive)
same,GI50,[39],33.4 µM (inactive)
same,GI50,[40],22.6 µM (inactive)
same,GI50,[41],45 µM (inactive)
same,GI50,[42],19.9 µM (inactive)
same,GI50,[43],27.5 µM (inactive)
same,GI50,[44],30.3 µM (inactive)
same,GI50,[45],26.1 µM (inactive)
same,GI50,[46],37.3 µM (inactive)
same,GI50,[47],26.1 µM
same,GI50,[48],17.7 µM (inactive)
same,GI50,[49],20 µM (inactive)
same,GI50,[58],32.3 µM (inactive)
same,GI50,[50],23.1 µM (inactive)
same,GI50,[51],19.4 µM (inactive)
same,GI50,[52],21.8 µM (inactive)
same,GI50,[53],11.5 µM (inactive)
same,GI50,[54],30.1 µM (inactive)
same,GI50,[59],26.5 µM (inactive)
same,GI50,[55],22 µM (inactive)
same,GI50,[56],25.4 µM (inactive)
